Measurements: PubChem BioAssay AID1259411 (Chemical Carcinogenesis Research Information System (CCRIS), 2018)
Active and inactive are the calls of the source. The rule behind the calls is not given here.

Tested on: rodent carcinogenicity bioassays, tumor incidence
Assay: CCRIS carcinogenicity studies
In short: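 Archive of carcinogenicity, mutagenicity, tumor promotion and tumor inhibition results drawn from journals, NCI reports and other sources, expert-reviewed; covers 1985-2011 and is no longer updated.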

## ClC(Cl)=C(Cl)Cl
Species: MOUSE, Strain/Sex: B6C3F1/FEMALE, Route: GAVAGE, Dose: 0, 386, 772 MG/KG, TWA FOR 78 WKS, Dose: 0, 386, 772 MG/KG, TWA FOR 78 WKS, Tumor Site: Type of Lesion: LIVER: HEPATOCELLULAR CARCINOMA
  carcinogen call: active; positive
Species: MOUSE, Strain/Sex: B6C3F1/FEMALE, Route: INHALATION, Dose: 0, 100, 200 PPM 6 HR/D, 5 D/WK FOR 103 WK, Dose: 0, 100, 200 PPM 6 HR/D, 5 D/WK FOR 103 WK, Tumor Site: Type of Lesion: LIVER: HEPATOCELLULAR CARCINOMA, HEPATOCELLULAR ADENOMA OR CARCINOMA
  carcinogen call: active; positive
Species: MOUSE, Strain/Sex: B6C3F1/MALE, Route: GAVAGE, Dose: 0, 536, 1072 MG/KG, TWA FOR 78 WKS, Dose: 0, 536, 1072 MG/KG, TWA FOR 78 WKS, Tumor Site: Type of Lesion: LIVER: HEPATOCELLULAR CARCINOMA
  carcinogen call: active; positive
Species: MOUSE, Strain/Sex: B6C3F1/MALE, Route: INHALATION, Dose: 0, 100, 200 PPM 6 HR/D, 5 D/WK FOR 103 WK, Dose: 0, 100, 200 PPM 6 HR/D, 5 D/WK FOR 103 WK, Tumor Site: Type of Lesion: LIVER: HEPATOCELLULAR ADENOMA, HEPATOCELLULAR CARCINOMA
  carcinogen call: active; positive
Species: RAT, Strain/Sex: F344/FEMALE, Route: INHALATION, Dose: 0, 200, 400 PPM 6 HR/D, 5 D/WK FOR 103 WK, Dose: 0, 200, 400 PPM 6 HR/D, 5 D/WK FOR 103 WK, Tumor Site: Type of Lesion: HEMATOPOIETIC SYSTEM: MONONUCLEAR CELL LEUKEMIA
  carcinogen call: active; positive
Species: RAT, Strain/Sex: F344/MALE, Route: INHALATION, Dose: 0, 200, 400 PPM 6 HR/D, 5 D/WK FOR 103 WK, Dose: 0, 200, 400 PPM 6 HR/D, 5 D/WK FOR 103 WK, Tumor Site: Type of Lesion: HEMATOPOIETIC SYSTEM: MONONUCLEAR CELL LEUKEMIA
  carcinogen call: active; positive

## CCCCOC(=O)c1ccccc1C(=O)OCc1ccccc1
Species: MOUSE, Strain/Sex: B6C3F1/FEMALE, Route: ORAL, Dose: 0, 6000, 12000 PPM IN DIET FOR 103 WK (STUDY DURATION: 105-106 WK), Dose: 0, 6000, 12000 PPM IN DIET FOR 103 WK (STUDY DURATION: 105-106 WK)
  carcinogen call: inactive; negative
Species: MOUSE, Strain/Sex: B6C3F1/MALE, Route: ORAL, Dose: 0, 6000, 12000 PPM IN DIET FOR 103 WK (STUDY DURATION: 104-106 WK), Dose: 0, 6000, 12000 PPM IN DIET FOR 103 WK (STUDY DURATION: 104-106 WK)
  carcinogen call: inactive; negative
Species: RAT, Strain/Sex: F344/FEMALE, Route: ORAL, Dose: 0, 6000, 12000, 24000 PPM IN DIET FOR DURATION OF STUDY (STUDY DURATION: 104 WK), Dose: 0, 6000, 12000, 24000 PPM IN DIET FOR DURATION OF STUDY (STUDY DURATION: 104 WK), Tumor Site: Type of Lesion: PANCREAS: ACINAR CELL ADENOMA, URINARY BLADDER: TRANSITIONAL EPITHELIAL PAPILLOMA
  carcinogen call: equivocal
Species: RAT, Strain/Sex: F344/FEMALE, Route: ORAL, Dose: 0, 24000 PPM IN DIET FOR 105 WK, CONTROL GROUP DIET RESTRICTED TO LIMIT WEIGHTS TO 85% OF AD LIBITUM-FED GROUP (STUDY DU
  carcinogen call: inactive; negative
Species: RAT, Strain/Sex: F344/FEMALE, Route: ORAL, Dose: 0, 24000 PPM IN DIET FOR 106 WK, CONTROL AND DOSED GROUP FED AD LIBITUM (STUDY DURATION: 2 YR)
  carcinogen call: inactive; negative
Species: RAT, Strain/Sex: F344/FEMALE, Route: ORAL, Dose: 0, 24000 PPM IN DIET FOR 106 WK, CONTROL GROUP WAS WEIGHT-MATCHED TO DOSED GROUP (STUDY DURATION: 2 YR)
  carcinogen call: inactive; negative
Species: RAT, Strain/Sex: F344/MALE, Route: ORAL, Dose: 0, 3000, 6000, 12000 PPM IN DIET FOR DURATION OF STUDY (STUDY DURATION: 104 WK), Dose: 0, 3000, 6000, 12000 PPM IN DIET FOR DURATION OF STUDY (STUDY DURATION: 104 WK), Tumor Site: Type of Lesion: PANCREAS: ACINAR CELL ADENOMA, ACINAR CELL ADENOMA OR CARCINOMA
  carcinogen call: active; positive
Species: RAT, Strain/Sex: F344/MALE, Route: ORAL, Dose: 0, 12000 PPM IN DIET FOR 105 WK, CONTROL AND DOSED GROUPS FED AD LIBITUM (STUDY DURATION 2 YR), Tumor Site: Type of Lesion: PANCREAS(ACINUS): ADENOMA
  carcinogen call: active; positive
Species: RAT, Strain/Sex: F344/MALE, Route: ORAL, Dose: 0, 12000 PPM IN DIET FOR 105 WK, CONTROL GROUP DIET RESTRICTED TO LIMIT WEIGHTS TO 85% OF AD LIBITUM-FED GROUPS (STUDY D
  carcinogen call: inactive; negative
Species: RAT, Strain/Sex: F344/MALE, Route: ORAL, Dose: 0, 12000 PPM IN DIET FOR 105 WK, CONTROL GROUP WAS WEIGHT-MATCHED TO DOSED GROUP (STUDY DURATION: 2 YR), Tumor Site: Type of Lesion: PANCREAS(ACINUS): ADENOMA
  carcinogen call: active; positive
Species: RAT, Strain/Sex: F344/MALE, Route: ORAL, Dose: 0, 12000 PPM IN DIET FOR 128 WK, CONTROL GROUP DIET RESTRICTED TO LIMIT WEIGHTS TO 85% OF AD LIBITUM-FED GROUP (STUDY DU
  carcinogen call: inactive; negative

## CCCCNC(=O)n1c(NC(=O)OC)nc2ccccc21
Species: Mouse, Strain/Sex: CD-1/Female (80/group), Route: Oral, Dose: 0, 500, 1500, 7500 for 37 wk reduced to 5000 ppm in feed for 2 yr, Dose: 0, 500, 1500, 7500 for 37 wk reduced to 5000 ppm in feed for 2 yr, Tumor Site: Type of Lesion: Liver: Hepatocellular adenoma (2/64, 2/60, 7/73, 7/68), Hepatocellular carcinoma (2/64, 7/60, 6/73, 14/68), Combined (4/, Tumor Site: Type of Lesion: Liver: Hepatocellular adenoma (2/64, 2/60, 7/73, 7/68), Hepatocellular carcinoma (2/64, 7/60, 6/73, 14/68), Combined (4/
  carcinogen call: active; positive; purity 99%; additional study details in california epa department of p
Species: Mouse, Strain/Sex: CD-1/Male (80/group), Route: Oral, Dose: 0, 500, 1500, 7500 for 37 wk reduced to 5000 ppm in feed for 2 yr, Dose: 0, 500, 1500, 7500 for 37 wk reduced to 5000 ppm in feed for 2 yr, Tumor Site: Type of Lesion: Liver: Hepatocellular adenoma (9/60, 9/75, 11/73, 10/76), Hepatocellular carcinoma (16/60, 26/75, 41/73, 17/76), Combine, Tumor Site: Type of Lesion: Liver: Hepatocellular adenoma (9/60, 9/75, 11/73, 10/76), Hepatocellular carcinoma (16/60, 26/75, 41/73, 17/76), Combine
  carcinogen call: active; positive; purity 99%; additional study details in california epa department of p

## Nc1ccccc1
Species: MOUSE, Strain/Sex: B6C3F1/FEMALE, Route: ORAL, Dose: 0, 0.6, 1.2% OF DIET, Dose: 0, 0.6, 1.2% OF DIET
  carcinogen call: inactive; negative
Species: MOUSE, Strain/Sex: B6C3F1/MALE, Route: INTRAPERITONEAL, Dose: 0, 0.15 UMOL/G ONCE IN SODIUM ACETATE BUFFER (STUDY DURATION: 10 MO)
  carcinogen call: inactive; negative
Species: MOUSE, Strain/Sex: B6C3F1/MALE, Route: ORAL, Dose: 0, 0.6, 1.2% OF DIET, Dose: 0, 0.6, 1.2% OF DIET
  carcinogen call: inactive; negative
Species: RAT, Strain/Sex: F344/FEMALE, Route: ORAL, Dose: 0, 0.3, 0.6% OF DIET, Dose: 0, 0.3, 0.6% OF DIET, Tumor Site: Type of Lesion: SPLEEN OR BODY CAVITIES (BOTH PLEURAL AND PERITONEAL): FIBROSARCOMA OR SARCOMA, NOS
  carcinogen call: active; positive
Species: RAT, Strain/Sex: F344/FEMALE, Route: ORAL, Dose: 0, 3000, 6000 PPM IN DIET FOR 103 WK (STUDY DURATION: 108 WK), Dose: 0, 3000, 6000 PPM IN DIET FOR 103 WK (STUDY DURATION: 108 WK), Tumor Site: Type of Lesion: SPLEEN OR PERITONEUM: SARCOMA
  carcinogen call: active; positive
Species: RAT, Strain/Sex: F344/MALE, Route: ORAL, Dose: 0, 0.3, 0.6% OF DIET, Dose: 0, 0.3, 0.6% OF DIET, Tumor Site: Type of Lesion: SPLEEN AND BODY CAVITIES (BOTH PLEURAL AND PERITONEAL): FIBROSARCOMA OR SARCOMA, NOS, HEMANGIOSARCOMA
  carcinogen call: active; positive
Species: RAT, Strain/Sex: F344/MALE, Route: ORAL, Dose: 0, 3000, 6000 PPM IN DIET FOR 103 WK (STUDY DURATION: 108 WK), Dose: 0, 3000, 6000 PPM IN DIET FOR 103 WK (STUDY DURATION: 108 WK), Tumor Site: Type of Lesion: SPLEEN OR PERITONEUM: SARCOMA
  carcinogen call: active; positive

## S=P(N1CCOCC1)(N1CC1)N1CC1
Species: MOUSE, Route: INTRAPERITONEAL, Tumor Site: Type of Lesion: LUNG
  carcinogen call: active; positive

## CN(N=O)C1CCCCC1
Species: HAMSTER, Strain/Sex: SYRIAN/FEMALE, Route: GAVAGE, Dose: 0, 2.5 MG/KG 1/WK FOR 50 WK (TOTAL DOSE: 0; 0.9 MMOL) (STUDY DURATION: LIFETIME), Dose: 0, 2.5 MG/KG 1/WK FOR 50 WK (TOTAL DOSE: 0; 0.9 MMOL) (STUDY DURATION: LIFETIME)
  carcinogen call: inactive; negative
Species: HAMSTER, Strain/Sex: SYRIAN/MALE, Route: GAVAGE, Dose: 0, 2.5 MG/KG 1/WK FOR 50 WK (TOTAL DOSE: 0; 0.9 MMOL) (STUDY DURATION: LIFETIME), Dose: 0, 2.5 MG/KG 1/WK FOR 50 WK (TOTAL DOSE: 0; 0.9 MMOL) (STUDY DURATION: LIFETIME), Tumor Site: Type of Lesion: LUNG: ALVEOLAR/BRONCHIAL ADENOMA, ADENOSQUAMOUS CARCINOMA
  carcinogen call: active; positive
